# Assays:
# yellow nutsedge (YN) = assay: PRE greenhouse, 2,4-DC + sulfentrazone, % control; type: in vivo, Cyperus esculentus; conditions: 28 DAT, g ai/ha by row: r8-16 2,4-DC 50/100/200 (3 rows each) + sulfentrazone 105/210/315 (cycling)
# Procedure: Test compositions containing 2,4-DC Example 1B and sulfentrazone (Spartan® 4F, 39.6% active ingredient, FMC Corp.) and mixtures of 2-(2,4-dichlorophenyl)methyl-4,4-dimethyl-3-isoxazolidinone and sulfentrazone, were diluted with water to provide the appropriate test rate concentration.
# The test weeds were Pennsylvania smartweed (PS) (Polygonum pennsylvanicum), Palmer amaranth (PA) (Amaranthus palmeri), velvetleaf (VL) (Abutilon theophrasti), green foxtail (GF) (Setaria viridis), morningglory (MG) (Ipomoea spp.), yellow nutsedge (YN) (Cyperus esculentus), purple nutsedge (PN) (Cyperus rotundus), and benghal dayflower (BD) (Commelina benghalensis). Crops included in the evaluation were corn, wheat, and cowpea.
# For pre-emergence testing, four disposable fiber flats (6″ by 10″) for each rate of application of each herbicide solution were filled with top soil, to which seeds of each species were planted in furrows made by a template pressed on the top of the soil. The furrows with crop/weed seeds were covered with soil and were watered well before application of the test compounds. Flats designated for treatment were placed in a spray chamber having a static platform and a movable sprayer and height of the spray nozzle was 10.5 inches above the soil level. Once the sprayer was calibrated using water for spray volume of 30 gallons per acre, flats were sprayed with sprayer at a speed to receive a coverage equivalent of 30 gallons per acre.
# The application rates are those shown in Table 3, 3A, an d 3B below for the individual herbicidal solutions and the herbicide compositions of the present invention. The pre-emergence flats were immediately placed in the greenhouse and watered lightly after treatment for herbicide activation. Thereafter they were regularly watered and feterilized for the duration of the test. The control of weeds was evaluated in each experimental test at 28 days after treatment (DAT), 14 DAT for crops. The results, shown as an average of the replications, were compared with results observed in untreated control flats in the same tests. Percent weed control was determined by a method similar to the 0 to 100 rating system disclosed in “Research Methods in Weed Science,” 2nd ed., B. Truelove, Ed.; Southern Weed Science Society; Auburn University, Auburn, Ala., 1977.
# Wild buckwheat [1] = assay: Ex11 PRE 2,4-DC + clomazone, % control 28 DAT, Colby; type: in vivo, Polygonum convolvulus
# Source text: The crop tested was Oilseed rape.
# Additional treatments included applications of metazachlor (Butisan®, 43.1%) at 750 g ai/ha, napropamide (Devrinol DF®, 50%) at 1260 g, and dimethachlor (Teridox®, 48%) at 1000 g. […] Treatments were applied just after the planting of tall morningglory, wild mustard, common lambsquarters, Italian ryegrass, wild buckwheat, redroot pigweed, common chickweed, corn poppy, and oilseed rape.
# Flats were watered and fertilized routinely after treatment application. Each treatment was replicated three times.
# Wild buckwheat [2] = assay: Ex12 PRE 2,4-DC + dimethenamid-P, % control 28 DAT, Colby; type: in vivo, Polygonum convolvulus
# Procedure: (§1) The tested weeds include: wild buckwheat (Polygonum convolvulus, POLCO), velvetleaf (Abutilon theophrasti, ABUTH), cheat (Bromus secalinus, BROSE), wild oat (Avena fatua, AVEFA), radish (Raphanus sativus, RAPSN), corn poppy (Papaver rhoeas, PAPRH), yellow foxtail (Setaria pumila, SETLU), Italian ryegrass (Lolium perenne ssp. multiflorum, LOLMU). The tested crop was Oilseed rape.
# (§2) This greenhouse study was conducted to assess the preemergence (PRE) weed control and oilseed rape tolerance with 2,4 DC (CS 36.7%) and dimethenamid-P (Outlook®, 63.9%) tank-mix combinations.
# (§3) Metazachlor (Butisan, 43.1%) plus dimethenamid-P applied as tank mix at 500 g each was applied as commercial standard. Treatments were replicated 3 times and flats were watered after planting but before the treatment and then lightly watered after treatment application. Thereafter flats were watered and fertilized routinely.
# Wild oat = assay: as above; type: in vivo, Avena fatua
# Procedure: as §1, §2, §3
# Common lambsquarters = assay: Ex13 PRE 2,4-DC + diflufenican, % control 28 DAT, Colby; type: in vivo, Chenopodium album
# Source text: Pyroxasulfone (KIH-485, 85%) at 74.3 g ai/ha, pendimethalin (Prowl 3.3EC, 37.4%) at 1200 g ai/ha, or a premix of chlorsulfuron plus metsulfuron-methyl (Report Extra, 75%) at 15.8 g ai/ha were applied as commercial standards. […] Treatments were replicated 3 times and flats were watered after planting before the treatment and lightly watered after treatment application. Thereafter flats were watered and fertilized routinely.
# Ivyleaf morningglory = assay: Ex17 PRE 2,4 DC + isoxaflutole, % control 28 DAT, Colby; type: in vivo, Ipomoea hederacea
# Procedure: In this example a study was conducted to determine weed efficacy and sugarcane injury when 2,4 DC or isoxaflutole are applied either alone or tank-mix as preemergence against the weeds: Ivyleaf morningglory (Ipomoea hederacea, IPOHE), hairy beggartickss (Bidens pilosa, BIDPI), yellow nutsedge (Cyperus esculentus, CYPES), large crabgrass (Digitaria sanguinalis, DIGSA), and redroot pigweed (Amaranthus retroflexus, AMARE). The crop tested in this study was Sugarcane (var. CTC 20).
# To determine weed efficacy and sugarcane selectivity, 2,4 DC (SC 36%) and isoxaflutole (Balance Flexx®, 20%) were applied PRE either alone or as tank-mix partners at rates mentioned below. 2,4 DC was applied at 500, 750, and 1000 g ai/ha while isoxaflutole was applied at 80, 100, and 120 g ai/ha. […] Treatments were applied PRE to sugarcane (var. CTC 20), ivyleaf morningglory, hairy beggarticks, yellow nutsedge, large crabgrass, and redroot pigweed. […] Soil was watered before application and watered lightly after application. Flats were watered and fertilized routinely after treatment application.
# weeds = assay: Ex10 PRE greenhouse; type: in vivo; conditions: 28 DAT, weed and rate in the words
compound,measurement,setting,value
"CC1(C)CON(Cc2ccc(Cl)cc2Cl)C1=O [2,4-DC, 2-(2,4-dichlorophenyl)methyl-4,4-dimethyl-3-isoxazolidinone]",% Control YN,"yellow nutsedge (YN); r17-19 2,4-DC 50/100/200, r20-22 sulfentrazone 105/210/315, 50 g ai/ha",10%
same,% Control YN,"yellow nutsedge (YN); r17-19 2,4-DC 50/100/200, r20-22 sulfentrazone 105/210/315, 100 g ai/ha",12%
same,% Control YN,"yellow nutsedge (YN); r17-19 2,4-DC 50/100/200, r20-22 sulfentrazone 105/210/315, 200 g ai/ha",13%
same,X,"Wild buckwheat [1]; 2,4-DC alone 125 g ai/ha",10%
same,X,"Wild buckwheat [1]; 2,4-DC alone 170 g ai/ha",30%
same,X,"Wild buckwheat [1]; 2,4-DC alone 210 g ai/ha",22%
same,X,"Wild buckwheat [1]; 2,4-DC alone 250 g ai/ha",27%
same,X,"Wild buckwheat [2]; 2,4-DC alone 125 g ai/ha",8%
same,X,"Wild buckwheat [2]; 2,4-DC alone 170 g ai/ha",25%
same,X,"Wild buckwheat [2]; 2,4-DC alone 210 g ai/ha",28%
same,X,"Wild buckwheat [2]; 2,4-DC alone 250 g ai/ha",38%
same,X,"Wild oat; 2,4-DC alone 125 g ai/ha",9%
same,X,"Wild oat; 2,4-DC alone 170 g ai/ha",27%
same,X,"Wild oat; 2,4-DC alone 210 g ai/ha",27%
same,X,"Wild oat; 2,4-DC alone 250 g ai/ha",29%
same,X,"Common lambsquarters; 2,4-DC alone 125 g ai/ha",15%
same,X,"Common lambsquarters; 2,4-DC alone 170 g ai/ha",26%
same,X,"Common lambsquarters; 2,4-DC alone 210 g ai/ha",58%
same,X,"Common lambsquarters; 2,4-DC alone 250 g ai/ha",60%
same,X,"Ivyleaf morningglory; 2,4-DC alone 500 g ai/ha",67%
same,X,"Ivyleaf morningglory; 2,4-DC alone 750 g ai/ha",78%
same,X,"Ivyleaf morningglory; 2,4-DC alone 1000 g ai/ha",88%
same,weed control in words,weeds,alone at 250 g ai/ha controlled common lambsquarters
